In one experiment the test system is Arc. Kind of experiment: Western blot of Arc in hippocampal neurons. The class given is cell-based, rat. To be noted: Aβ for 8-10 hours. Here is the method: (§1) Whole frozen mouse hippocampi, human brain specimens, and cultured cells were homogenized in RIPA buffer (ThermoFisher) supplemented with protease and phosphatase inhibitor cocktail (ThermoFisher), using a Teflon dounce homogenizer and centrifuged at 14,000 rpm for 10 minutes at 4° C. Supernatants were collected, normalized by BCA assay (ThermoFisher), and prepared for loading using sample buffer (SB) 4× (ThermoFisher) and dithiothreitol (DTT) 10× (ThermoFisher).
(§2) As observed in the Tg2576 mice hippocampi, the levels of Ube3A inversely correlated with the levels of Arc and Ephexin-5. To determine whether this correlation was also observed in hippocampal neurons, the cells were treated with Aβ for 8-10 hours, and whole cell lysates were collected for Western blot analysis.
Background: A western blot detects proteins with antibodies after separation by electrophoresis.

In another experiment the test system is p53. Kind of experiment: Western blot of p53 in hippocampal neurons. The class given is cell-based, rat. To be noted: Aβ for 8-10 hours. The protocol:
as §1, §2

For the next experiment, the system named is Ube3A mRNA. As to the kind of experiment: qPCR of Ube3A mRNA in hippocampal neurons. The class given is cell-based, rat. To be noted: oAβ for 24 hours (results not shown). Here is the method:
Neurons were lysed and total RNA was extracted using TRIzol reagent (Ambion) following the manufacturer's protocol. RNA concentration and purity were assessed by measuring the optical density at 260 and 280 nm with a NanoDrop (Thermo Scientific). cDNA was synthesized using the first-strand cDNA synthesis kit (Origene) with 1 μg of total RNA, following the manufacturer's instructions. Quantitative real-time PCR was performed using FastStart SYBR Green Master Mix (Roche) and an Eppendorf Realplex Mastercyler with the following cycle settings: 1 cycle at 95° C. for 10 min and 40 cycles of amplification, 95° C. for 15 s, 58-60° C. for 30-60 s, 72° C. for 30-60 s. The amounts of Ube3A mRNA were quantified and normalized to GAPDH mRNA using the following primer pairs: Ube3A forward 5′-[…]-3′ (SEQ ID NO: 3) and reverse 5′-[…]—3′ (SEQ ID NO: 4). The threshold cycles were determined and normalized to the threshold cycles of a GAPDH gene. Relative mRNAs levels for Ube3A were expressed as a fold induction in an experimental condition compared with a control condition.
In mammals, the Ube3A gene is subject to genomic imprinting, whereby only the maternal allele is expressed in neurons. The paternal allele is silenced through the expression of a Ube3A-antisense (Ube3A-ATS), transcribed as part of a large non-coding antisense transcript (Runte et al. 2001).
On the technique in general: Real-time PCR tracks product formation cycle by cycle.

In the next experiment the test system is GluR1. Kind of experiment: Surface GluR1 in hippocampal neurons (biotinylated surface Western blot, immunostaining). The class given is cell-based, rat. As to conditions: hippocampal neurons treated with Aβ. Here is the method: Cells were fixed in PFA (4%) in […] PBS for 10 minutes at room temperature. Permeabilization was performed using 0.4% Triton X-100 (Sigma) in PBS for 20 minutes. Then, cells were incubated in anti-GluR1 primary antibody (Millipore) in Superblock (Thermo Scientific) with 0.1% Triton X-100 for 12 hours at 4° C. Cells were washed with PBS, and then incubated in goat anti-mouse Alexa 568 in Superblock with 0.1% Triton X-100 for 1 hour at RT. Then cells were mounted onto glass slides using Gel Mount (Biomeda).
The consequences of upregulation of Arc and Ephexin-5 are well characterized. In the case of Arc, one its key function is to regulate postsynaptic trafficking of AMPA receptor subunits, and to regulate spine morphology and network stability (Korb and Finkbeiner 2011).

Experiment [1] has as its system Ube3A. Kind of experiment: Ube3A protein degradation in B35 cells (cycloheximide chase). The class given is cell-based, rat. As to conditions: CHX and oAβ for 4, 8 and 16 hours. The protocol:
FIG. 5A is a graph showing the quantification of Western blots of the levels of Ube3A and GAPDH (as house-keeping protein) of B35 cells treated with cycloheximide (CHX) or CHX and oAβ for 4, 8 and 16 hours. […] Graphs represent mean values and standard deviation. Significance determined by one-way ANOVA followed by Tukey Post Hoc multiple comparisons.

Experiment [2] has as its system Ube3A. As to the kind of experiment: Ube3A protein in hippocampus of J20 AD mice. The class given is in vivo. To be noted: single bilateral TOP injection 275 μg at 9-10 months, measured at 11-12 months.
Source text: The J20 transgenic mouse line also used in the studies expresses a mutated human APP (hAPP: K670N/M671L and V717F) under the control of the platelet-derived growth factor promoter (Mucke et al. 2000). These mice have deficits in learning and memory, inhibition of long-term potentiation, loss of dendritic spines, profuse amyloid plaques, and increased phosphorylation of the tau protein. These mice also have increased RhoA-GTP activity and progressive decrease in spinal density when treated with oligomeric Aβ. See Pozueta et al. 2013.
as §1
(§3) Controls were wild-type mice and J20 mice injected with PBS.

The subject of a further experiment is J20 mice. As to the kind of experiment: Dendritic spine density in hippocampus of J20 mice. The class given is in vivo. As to conditions: single TOP injection 275 μg. Here is the method:
The protocol for diolistic labeling of neurons was adapted from Gan et al. 2000 and Gan et al. 2009. Briefly, 100 mg of tungsten particles (1.1 μm diameter; Bio-Rad) were thoroughly precipitated with 5.0 mg of lipophilic dye (DiI; ThermoFisher) and dissolved in 100 μl of methylene chloride. Dye-coated particles were shot 2-3 times into the cells using the Helios gene gun system (Bio-Rad) and left in 0.1 M PBS overnight to allow dye diffusion along neuronal processes. Cells were post-fixed with 4% paraformaldehyde (Pierce) for 1 hour to preserve staining, then mounted onto glass slides using Gel Mount (Biomeda) and stored at 4° C. in the dark.
Labeled neurons were imaged using the Laser Scanning Microscope (LSM) 510 Meta confocal microscope (Zeiss), equipped with 40×1.3 NA and 100×1.4 NA oil-immersion objectives. The NIH Image software program ImageJ was used the quantify diolistic-labeled cultured neurons. An average of 12 compressed images (20 μm thick) consisting of pyramidal neurons were quantified for each treatment. Spines were counted with NeuronStudio software in a blinded manner and spine density was represented in number of spine per μm dendritic length. Statistical analysis was performed using the statistics package GraphPad Prism.
as §3

For the compound “oAβ: synthetic soluble oligomeric Aβ1-42”, the “levels of Arc protein” value in the experiment with Arc is recorded as “significant increase”. For the same compound, the “levels of p53” value in the experiment on p53 is given as “did not show any altered levels”. Moreover, the “levels of Ube3A mRNA” value with Ube3A mRNA is listed as “did not show any differences”. The “levels of surface-expressed GluR1 subunit” value with GluR1 is reported as “significant decrease”. Besides, the “degradation rate of the Ube3A protein” value in the experiment on Ube3A [1] is listed as “significantly increased”.

For `CC[C@@]1(O)C(=O)OCc2c1cc1n(c2=O)Cc2cc3c(CN(C)C)c(O)ccc3nc2-1` [TOP, topotecan], the “levels of Ube3A in the hippocampus” value in the experiment with Ube3A [2] is listed as “increased”. In addition, in the experiment on J20 mice, the dendritic spine density result is “significant increase”.

The values above are taken from patent US20200138921A1, “METHODS OF PREVENTING AND TREATING DISEASES CHARACTERIZED BY SYNAPTIC DYSFUNCTION AND NEURODEGENERATION INCLUDING ALZHEIMER'S DISEASE” (The Trustees of Columbia University in the City of New York, priority 2017, published 2020).
